According to PubChem BioAssay (NCI):
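The compound was tested at five concentrations on cells cultured in 96-well plates, with a 48-hour exposure period. Here, GI50 denotes the concentration required for 50% inhibition of growth. TGI is the concentration that stops growth completely.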

Experiments:
Experiment in all cases: growth of human tumour cells (NCI), 48 h
[1] = test system: SNB-19 CNS
[2] = test system: BT-549 breast
[3] = test system: CAKI-1 renal
[4] = test system: SK-OV-3 ovarian
[5] = test system: SK-MEL-2 melanoma
[6] = test system: NCI-H522 lung
[7] = test system: IGROV1 ovarian
[8] = test system: UACC-257 melanoma
[9] = test system: 786-0 renal
[10] = test system: HT29 colon
[11] = test system: MALME-3M melanoma
[12] = test system: UO-31 renal
[13] = test system: SN12C renal
[14] = test system: SNB-75 CNS
[15] = test system: MDA-MB-231 breast
[16] = test system: SF-268 CNS
[17] = test system: HS 578T breast
[18] = test system: ACHN renal
[19] = test system: RPMI-8226 leukemia
[20] = test system: K-562 leukemia
[21] = test system: M14 melanoma
[22] = test system: A498 renal
[23] = test system: HCT-15 colon
[24] = test system: HL-60(TB) leukemia
[25] = test system: DU-145 prostate
[26] = test system: CCRF-CEM leukemia
[27] = test system: HCT-116 colon
[28] = test system: MOLT-4 leukemia
[29] = test system: COLO 205 colon
[30] = test system: MCF7 breast
[31] = test system: OVCAR-3 ovarian
[32] = test system: NCI-H460 lung
[33] = test system: MDA-MB-435
[34] = test system: SK-MEL-28 melanoma
[35] = test system: NCI-H23 lung
[36] = test system: NCI-H226 lung
[37] = test system: TK-10 renal
[38] = test system: HCC-2998 colon
[39] = test system: NCI/ADR-RES ovarian
[40] = test system: SF-539 CNS
[41] = test system: OVCAR-8 ovarian
[42] = test system: SW-620 colon
[43] = test system: A549 NSCLC
[44] = test system: T-47D breast
[45] = test system: UACC-62 melanoma
[46] = test system: U251 CNS
[47] = test system: OVCAR-4 ovarian
[48] = test system: SK-MEL-5 melanoma
[49] = test system: EKVX NSCLC
[50] = test system: KM12 colon
[51] = test system: RXF 393 renal
[52] = test system: SF-295 CNS
[53] = test system: HOP-92 NSCLC
[54] = test system: HOP-62 NSCLC
[55] = test system: PC-3 prostate
[56] = test system: LOX IMVI melanoma
[57] = test system: OVCAR-5 ovarian

O=C1c2[nH]cc(CN3CCN(CCO)CC3)c2C(=O)c2c1c(O)c1ccccc1c2O gave a GI50 [1] of 14.8 µM, a TGI [1] of 32.5 µM and a GI50 [2] of 13.8 µM. It also gave a TGI [2] of 28.6 µM, a GI50 [3] of 5.45 µM and a TGI [3] of 14.2 µM. The GI50 [4] was 18.7 µM, the TGI [4] was 37.5 µM and the GI50 [5] was 2.77 µM. It also gave a TGI [5] of 8.06 µM, a GI50 [6] of 2.08 µM and a TGI [6] of 9.05 µM. For the same compound, the GI50 [7] was 1.61 µM, the TGI [7] was 15.1 µM and the GI50 [8] was 8.33 µM. The TGI [8] was 25.2 µM, the GI50 [9] was 2.65 µM and the TGI [9] was 11 µM. It also gave a GI50 [10] of 12.3 µM, a TGI [10] of 31.6 µM and a GI50 [11] of 7.69 µM. It also gave a TGI [11] of 24.9 µM, a GI50 [12] of 3.82 µM and a TGI [12] of 18.8 µM. It also gave a GI50 [13] of 2.18 µM, a TGI [13] of 9.92 µM and a GI50 [14] of 14.2 µM. It also gave a TGI [14] of 32.8 µM, a GI50 [15] of 4.89 µM and a TGI [15] of 16.3 µM. The GI50 [16] was 5.9 µM, the TGI [16] was 24.2 µM and the GI50 [17] was 8.14 µM. It also gave a TGI [17] of 24.4 µM, a GI50 [18] of 5.38 µM and a TGI [18] of 23.3 µM. It also gave a GI50 [19] of 1.52 µM, a TGI [19] of 4.16 µM and a GI50 [20] of 2.17 µM. The TGI [20] was > 100 µM, the GI50 [21] was 1.69 µM and the TGI [21] was 3.86 µM. The GI50 [22] was 13.2 µM, the TGI [22] was 27.8 µM and the GI50 [23] was 2.87 µM. It also gave a TGI [23] of 18.6 µM, a GI50 [24] of 2.83 µM and a TGI [24] of 48.9 µM. The GI50 [25] was 4.53 µM, the TGI [25] was 18.2 µM and the GI50 [26] was 1.63 µM. For the same compound, the GI50 [27] was 1.76 µM, the TGI [27] was 5.47 µM and the GI50 [28] was 1.38 µM. For the same compound, the TGI [28] was 9.48 µM, the GI50 [29] was 16.4 µM and the TGI [29] was 47.4 µM. The GI50 [30] was 5.63 µM, the TGI [30] was 21.9 µM and the GI50 [31] was 4 µM. The TGI [31] was 16.3 µM, the GI50 [32] was 2.69 µM and the TGI [32] was 12.3 µM. For the same compound, the GI50 [33] was 1.84 µM, the TGI [33] was 4.14 µM and the GI50 [34] was 13.6 µM. The TGI [34] was 28.7 µM, the GI50 [35] was 14.9 µM and the TGI [35] was 39.4 µM. It also gave a GI50 [36] of 10.5 µM, a TGI [36] of 28.4 µM and a GI50 [37] of 0.36 µM. For the same compound, the TGI [37] was 6.78 µM, the GI50 [38] was 6.51 µM and the TGI [38] was 21.1 µM. The GI50 [39] was 9.64 µM, the TGI [39] was 28.3 µM and the GI50 [40] was 1.52 µM. For the same compound, the TGI [40] was 3.11 µM, the GI50 [41] was 5.52 µM and the TGI [41] was 17.7 µM. It also gave a GI50 [42] of 1.68 µM, a TGI [42] of 3.48 µM and a GI50 [43] of 7.15 µM. For the same compound, the TGI [43] was 24.4 µM, the GI50 [44] was 19.2 µM and the TGI [44] was 38.6 µM. The GI50 [45] was 4.53 µM, the TGI [45] was 9.01 µM and the GI50 [46] was 5.31 µM. It also gave a TGI [46] of 25.9 µM, a GI50 [47] of 13.3 µM and a TGI [47] of 29.4 µM. The GI50 [48] was 1.12 µM, the TGI [48] was 3.27 µM and the GI50 [49] was 8.14 µM. The TGI [49] was 22.5 µM, the GI50 [50] was 1.62 µM and the TGI [50] was 3.91 µM. For the same compound, the GI50 [51] was 6.03 µM, the TGI [51] was 22.9 µM and the GI50 [52] was 2.56 µM. The TGI [52] was 10.9 µM, the GI50 [53] was 1.14 µM and the TGI [53] was 9.56 µM. For the same compound, the GI50 [54] was 1.92 µM, the TGI [54] was 15 µM and the GI50 [55] was 2.7 µM. It also gave a TGI [55] of 8.78 µM, a GI50 [56] of 1.95 µM and a TGI [56] of 6.34 µM. The GI50 [57] was 16.5 µM and the TGI [57] was 33 µM.
